Patent US20250214980A1, “MULTICYCLIC COMPOUNDS” (SLAP Pharmaceuticals LLC, priority 2022, published 2025)

Columns and labels:
PARP1 [1] = molecular target: T1, PARP1 (Homo sapiens (Human), UniProt P09874); assay: cell-based assay (Proliferation Assay (PARP Inhibitors) in DLD-1 wt and DLD-1 BRCA2), Table 1
Description: Proliferation Assay (PARP Inhibitors) in DLD-1 wt and DLD-1 BRCA2
DLD-1-wt and DLD-1 mutant cells are cultured in RPMI 1640+10% FBS+1% PS. The cells are harvested into culture media for 2-3 days. The cells are diluted into culture media (density 2˜3×10^6) and 40 μL of cell suspension (50 cells/well for DLD-1 wt and 50 cells/well for DLD-1 BRCA (-/-). The plates are covered and spun at rt at 1000 rpm, for 1 minute and then transferred. The plates are placed into 37° C. 5% CO2 incubator overnight. Test compounds are dissolved at 10 mM DMSO stock solution and then 40 μL of stock solution is transferred to a 384 PP-plate. A 10-point dilution is carried out by transferring 10 uL compound into 30 μL DMSO by using TECAN (EVO200) liquid handler. The plates are spun at rt at 1000 rpm for 1 minute and then shaken on a plate shaker for 2 minutes. Forty nL of diluted compound is transferred into the cell plate by using a liquid handler. After 7 days of incubation, a CTG detection assay is performed. The CTG detection assay is carried out by removing the plates from the incubators and then equilibrated at rt for 15 minutes. The CellTiter Glo reagents are thawed and equilibrated at rt. CellTiter-Glo reagent ([…]) is added into each well, and the plates are placed at rt for 30 minutes followed by reading on EnVision. The inhibition activity is calculated using the formula: % Inhibition=100×(LumHC−LumSample)/(LumHC−LumLC).
In Table 1, ‘A’ indicates an IC50 of <0.1 μM, ‘B’ indicates an IC50 of ≥0.1 μM and <1.0 μM, and ‘C’ indicates an IC50 of ≥[…]. As shown by the results in Table 1, compounds of Formula (I), including pharmaceutically acceptable salts thereof, are effective PARP1 inhibitors.
Target sequence in this assay (P09874 whole entry): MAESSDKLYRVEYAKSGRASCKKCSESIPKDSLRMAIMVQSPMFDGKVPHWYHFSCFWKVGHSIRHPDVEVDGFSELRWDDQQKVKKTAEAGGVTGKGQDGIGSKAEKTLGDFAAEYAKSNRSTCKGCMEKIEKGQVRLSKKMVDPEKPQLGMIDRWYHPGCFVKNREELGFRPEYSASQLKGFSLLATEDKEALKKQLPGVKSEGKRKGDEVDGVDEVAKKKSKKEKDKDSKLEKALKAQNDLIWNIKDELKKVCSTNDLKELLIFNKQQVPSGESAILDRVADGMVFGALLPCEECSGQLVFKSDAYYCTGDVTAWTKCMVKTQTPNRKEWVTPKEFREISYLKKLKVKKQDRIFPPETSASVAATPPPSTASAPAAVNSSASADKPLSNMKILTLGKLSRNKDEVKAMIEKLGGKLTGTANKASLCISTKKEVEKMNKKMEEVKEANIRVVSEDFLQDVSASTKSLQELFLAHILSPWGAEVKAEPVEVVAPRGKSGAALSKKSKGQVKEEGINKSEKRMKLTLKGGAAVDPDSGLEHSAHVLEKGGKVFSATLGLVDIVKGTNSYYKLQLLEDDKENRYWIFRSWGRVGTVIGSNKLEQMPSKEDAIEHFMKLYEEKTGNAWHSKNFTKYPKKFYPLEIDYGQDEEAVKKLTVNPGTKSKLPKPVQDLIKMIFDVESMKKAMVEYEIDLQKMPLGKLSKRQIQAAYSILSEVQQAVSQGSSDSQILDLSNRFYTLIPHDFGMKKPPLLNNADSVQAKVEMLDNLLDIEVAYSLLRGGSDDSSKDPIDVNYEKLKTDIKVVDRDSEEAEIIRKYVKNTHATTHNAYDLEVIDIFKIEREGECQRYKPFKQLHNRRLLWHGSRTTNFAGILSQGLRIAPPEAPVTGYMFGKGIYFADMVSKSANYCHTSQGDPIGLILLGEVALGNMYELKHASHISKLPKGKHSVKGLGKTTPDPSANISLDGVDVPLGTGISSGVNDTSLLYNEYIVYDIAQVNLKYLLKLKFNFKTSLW

PARP1 [2] = molecular target: T1, PARP1; assay: biochemical assay (FP Binding Assay PARP1), Table 2
Description: FP Binding Assay (PARP1, PARP2)
The PARP1 and PARP 2 protein and the PARPi-FL were purchased from BPS Bioscience. The assay buffer was 50 mM Tris pH 8.0, 0.001% Triton X-100, 10 mM MgCl2, 150 mM NaCl. The compounds were diluted into top point concentration in 384PP-plate and transferred serially into an Optiplate-384F plate. Compound (20 nL) or DMSO was added to assay plate and then 10 μL of 40 nM PARP1 or PARP2 (diluted using assay buffer) was added. The assay plate was centrifuged at 1000 rpm for 1 min and then incubated for 30 min at rt. 6 nM PARPi-FL (diluted using assay buffer) (10 uL) was added to the plate (final concentration of PARP1 and PARP2 was 20 nM, and PARPi-FL was 3 nM). After centrifuging at 1000 rpm for 1 min, the assay plate was incubated at rt 4 h. The plates were read using Envision with Excitation filter. The data analysis was done by calculating the inhibition rate using mP value using the following equation. Inhibition (%)=(1−mpC−mpL)/mpH−mpL×100%.
As shown by the results in Table 2, compounds of Formula (I), including pharmaceutically acceptable salts thereof, are effective PARP1 inhibitors.
Target sequence in this assay (P09874 whole entry, species assumed): as the sequence (P09874 whole entry) above

With `CC[C@H]1Oc2ccc(CN3CCN(c4ccc(C(=O)NC)nc4)CC3)cc2NC1=O` [Compound 1aa] the IC50 (PARP1 [1]) was less than 100 nM.

Molecule `CC[C@@H]1Oc2ccc(CN3CCN(c4ccc(C(=O)NC)nc4C)CC3)cc2NC1=O` (single isomer, unassigned) [Compound 2ab] has an IC50 (PARP1 [1]) of less than 100 nM.

`CCC1Oc2ccc(CN3CCN(c4ccc(C(=O)NC)nc4)CC3)cc2NC1=O` (centres unmarked) [Compound A1] gave an IC50 (PARP1 [1]) of less than 100 nM.

Work on `CC[C@@H]1Oc2ccc(CN3CCN(c4ccc(C(=O)NC)nc4)CC3)cc2NC1=O` (single isomer, unassigned) [Compound 1ab] yielded an IC50 (PARP1 [1]) of less than 100 nM.

Molecule `CC[C@H]1Oc2ccc(CN3CCN(c4ccc(C(=O)NC)nc4C)CC3)cc2NC1=O` [Compound 2aa] has an IC50 (PARP1 [1]) of less than 100 nM.

With `CNC(=O)c1ccc(N2CCN(Cc3ccc4c(c3F)NC(=O)C3(CC3)O4)CC2)c(F)n1` [Compound A9] the IC50 (PARP1 [1]) was less than 100 nM.

Molecule `CNC(=O)c1ccc(N2CCN(Cc3ccc4c(c3)NC(=O)C3(CC3)O4)CC2)c(F)n1` [Compound A7] has an IC50 (PARP1 [1]) of less than 100 nM and an IC50 (PARP1 [2]) of less than 5 nM.
